# According to PubChem BioAssay AID1963970 (Molecular Pharmacology Branch, DTP, NCI, 2024):
# System: 931267-113-T-J1-PDC multicell spheroid viability
# Test: Anticancer human tumor 931267-113-T-J1-PDC patient-derived colon adenocarcinoma cell line growth inhibition [PI3K]
# Conditions: for IC50: curve of first compound; for viability, T/C: stronger effect = lower value
# Source text: Combinatorial screen of targeted agents with the PI3K inhibitors inavolisib, alpelisib, duvelisib, and copanlisib in multi-cell type tumor spheroids
# A high-throughput screen of multi-cell type tumor spheroids was designed to identify active combinations of targeted small molecules and PI3K pathway inhibitors. Complex spheroids include a stromal component modeled by human endothelial cells (HUVEC) and fibroblasts modeled by human mesenchymal stem cells (MSCs). The concentration ranges selected for each drug and investigational agent were based upon clinically achievable concentrations if the clinical Cmax of the agent was known.
# Compounds. The drugs and investigational agents: inavolisib (NSC800729), alpelisib (NSC765974), duvelisib (NSC772469), copanlisib (NSC816437), ipatasertib (NSC767898), afuresertib (NSC778305), talazoparib (NSC767125), sapanisertib (NSC764658), selumetinib (NSC741078), tovorafenib (DAY101, NSC766906), vemurafenib (NSC761431), ravoxertinib (NSC781343), sotorasib (NSC818433), MRTX1133 (NSC 836407), abemaciclib (NSC 768073), palbociclib (NSC758247), venetoclax (NSC 766270), SY5609 (NSC837396), enzalutamide (NSC755605), and darolutamide (NSC825331), were obtained from the National Cancer Institute (NCI) Developmental Therapeutics Program Chemical Repository. The FDA-approved anticancer drug set is available from the NCI Developmental Therapeutics Program. […] The stock solutions were prepared in dimethyl sulfoxide (DMSO, Sigma-Aldrich, St. Louis, MO, cat. D2650) at 800-fold the tested concentration and stored at -70 degrees C prior to their use. All drugs and investigational agents were tested over a range starting from a high concentration at or near the clinical Cmax and decreasing in half-log increments. If the clinical Cmax for an agent had not been determined, the highest concentration tested was 10 microM.
# Cell Culture. All cells were maintained in an incubator at 37 degrees C and 5% CO2 with 95% humidity. The PDC lines were cultured according to standard operating procedures established by the NCI PDMR (https://pdmr.cancer.gov/sops/default.htm). All PDCs were thawed and cultured in Matrigel-coated flasks prepared with a working solution of 1X Ham's F-12 nutrient mix, without supplementation (Invitrogen, Waltham, MA, cat. 11765054), 100 U/mL penicillin-streptomycin (Invitrogen, cat. 15140122), and 2.5% Matrigel (Corning Inc., Corning, NY, cat. 354248) for the first three passages. The 354836-022-R-J1-PDC, 475296-252-R-J1-PDC, and 997726-040-R-J2-PDC lines were cultured in 6A media, which includes advanced DMEM/F-12 (Thermo Fisher Scientific, cat. 12634028), 10 mM HEPES (Thermo Fisher Scientific, cat. 15630080), 1X GlutaMAX supplement (Thermo Fisher Scientific, cat. 35050061), 0.1 mg/mL primocin (InvivoGen, San Diego, CA, cat. ant-pm-2), 10% defined fetal bovine serum, heat inactivated (HyClone Laboratories Inc., Logan, UT, cat. SH30070.03HI), 50% L-WRN conditioned media (ATCC, cat. CRL-3276), 1.25 mM N-Acetyl-L-cysteine (Sigma-Aldrich, cat. A9165), 10 mM nicotinamide (Sigma-Aldrich, cat. N0636), 1X B-27 supplement (Thermo Fisher Scientific, cat. 17504044), 1X N-2 supplement (Thermo Fisher Scientific, cat. 17502048), and 10 microM Y-27632 dihydrochloride (Tocris Bioscience, Bristol, United Kingdom, cat. 1254). The 624824-186-R-J2-PDC line was cultured in 6C/Colon 1B media, which includes all 6A media components plus 50 ng/mL human EGF recombinant protein (Thermo Fisher Scientific, cat. PHG0311). […]
# [1] = second compound 0.00316 µM, first compound 0.0316 µM
# [2] = second compound 0.00316 µM, first compound 0.1 µM
# [3] = second compound 0.01 µM, first compound 0.0316 µM
# [4] = second compound 0.01 µM, first compound 0.1 µM
# [5] = second compound 0.0316 µM, first compound 0.0316 µM
# [6] = second compound 0.0316 µM, first compound 0.1 µM
# [7] = second compound 0.1 µM, first compound 0.0316 µM
# [8] = second compound 0.1 µM, first compound 0.1 µM
# [9] = second compound 0.316 µM, first compound 0.0316 µM
# [10] = second compound 0.316 µM, first compound 0.1 µM
# [11] = second compound 1 µM, first compound 0.0316 µM
# [12] = second compound 1 µM, first compound 0.1 µM
# 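Note: viability read 7 days after compound addition.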
smiles,measurement,setting,value
CC(C)n1nc(-c2ccc3oc(N)nc3c2)c2c(N)ncnc21 + CC(Nc1ccc2c(c1)OCCn1cc(N3C(=O)OCC3C(F)F)nc1-2)C(N)=O,IC50,second compound 0.00316 µM,0.0801 µM
same,IC50,second compound 0.01 µM,> 0.1 µM
same,IC50,second compound 0.0316 µM,0.0666 µM
same,IC50,second compound 0.1 µM,0.0607 µM
same,IC50,second compound 0.316 µM,0.0487 µM
same,IC50,second compound 1 µM,0.0377 µM
same,"viability, T/C","second compound 0.00316 µM, first compound 0.000316 µM",94.6%
same,"viability, T/C","second compound 0.00316 µM, first compound 0.001 µM",98%
same,"viability, T/C","second compound 0.00316 µM, first compound 0.00316 µM",83%
same,"viability, T/C","second compound 0.00316 µM, first compound 0.01 µM",91.5%
same,"viability, T/C",[1],80.2%
same,"viability, T/C",[2],42.5%
same,"viability, T/C","second compound 0.01 µM, first compound 0.000316 µM",104%
same,"viability, T/C","second compound 0.01 µM, first compound 0.001 µM",101%
same,"viability, T/C","second compound 0.01 µM, first compound 0.00316 µM",86%
same,"viability, T/C","second compound 0.01 µM, first compound 0.01 µM",81.1%
same,"viability, T/C",[3],68%
same,"viability, T/C",[4],52.2%
same,"viability, T/C","second compound 0.0316 µM, first compound 0.000316 µM",97.7%
same,"viability, T/C","second compound 0.0316 µM, first compound 0.001 µM",104%
same,"viability, T/C","second compound 0.0316 µM, first compound 0.00316 µM",101%
same,"viability, T/C","second compound 0.0316 µM, first compound 0.01 µM",90%
same,"viability, T/C",[5],71%
same,"viability, T/C",[6],38.8%
same,"viability, T/C","second compound 0.1 µM, first compound 0.000316 µM",89.4%
same,"viability, T/C","second compound 0.1 µM, first compound 0.001 µM",83.8%
same,"viability, T/C","second compound 0.1 µM, first compound 0.00316 µM",93%
same,"viability, T/C","second compound 0.1 µM, first compound 0.01 µM",77.7%
same,"viability, T/C",[7],64.1%
same,"viability, T/C",[8],39.6%
same,"viability, T/C","second compound 0.316 µM, first compound 0.000316 µM",82.7%
same,"viability, T/C","second compound 0.316 µM, first compound 0.001 µM",82.7%
same,"viability, T/C","second compound 0.316 µM, first compound 0.00316 µM",69%
same,"viability, T/C","second compound 0.316 µM, first compound 0.01 µM",70.8%
same,"viability, T/C",[9],59.2%
same,"viability, T/C",[10],36.7%
same,"viability, T/C","second compound 1 µM, first compound 0.000316 µM",72.5%
same,"viability, T/C","second compound 1 µM, first compound 0.001 µM",69.3%
same,"viability, T/C","second compound 1 µM, first compound 0.00316 µM",70.6%
same,"viability, T/C","second compound 1 µM, first compound 0.01 µM",59%
same,"viability, T/C",[11],55.9%
same,"viability, T/C",[12],31.8%
CCCS(=O)(=O)Nc1ccc(F)c(C(=O)c2c[nH]c3ncc(-c4ccc(Cl)cc4)cc23)c1F + CC(Nc1ccc2c(c1)OCCn1cc(N3C(=O)OCC3C(F)F)nc1-2)C(N)=O,IC50,second compound 0.00316 µM,6.11 µM
same,IC50,second compound 0.01 µM,6.34 µM
same,IC50,second compound 0.0316 µM,6.06 µM
same,IC50,second compound 0.1 µM,5.73 µM
same,IC50,second compound 0.316 µM,4.89 µM
same,IC50,second compound 1 µM,4.58 µM
same,"viability, T/C",[1],95.6%
same,"viability, T/C",[2],105%
same,"viability, T/C","second compound 0.00316 µM, first compound 0.316 µM",125%
same,"viability, T/C","second compound 0.00316 µM, first compound 1 µM",117%
same,"viability, T/C","second compound 0.00316 µM, first compound 3.16 µM",120%
same,"viability, T/C","second compound 0.00316 µM, first compound 10 µM",2.95%
same,"viability, T/C",[3],113%
same,"viability, T/C",[4],118%
same,"viability, T/C","second compound 0.01 µM, first compound 0.316 µM",121%
same,"viability, T/C","second compound 0.01 µM, first compound 1 µM",125%
same,"viability, T/C","second compound 0.01 µM, first compound 3.16 µM",132%
same,"viability, T/C","second compound 0.01 µM, first compound 10 µM",3.03%
same,"viability, T/C",[5],105%
same,"viability, T/C",[6],103%
same,"viability, T/C","second compound 0.0316 µM, first compound 0.316 µM",110%
same,"viability, T/C","second compound 0.0316 µM, first compound 1 µM",119%
same,"viability, T/C","second compound 0.0316 µM, first compound 3.16 µM",114%
same,"viability, T/C","second compound 0.0316 µM, first compound 10 µM",3.59%
same,"viability, T/C",[7],91.9%
same,"viability, T/C",[8],81.2%
same,"viability, T/C","second compound 0.1 µM, first compound 0.316 µM",102%
same,"viability, T/C","second compound 0.1 µM, first compound 1 µM",107%
same,"viability, T/C","second compound 0.1 µM, first compound 3.16 µM",111%
same,"viability, T/C","second compound 0.1 µM, first compound 10 µM",4.35%
same,"viability, T/C",[9],82.3%
same,"viability, T/C",[10],86.5%
same,"viability, T/C","second compound 0.316 µM, first compound 0.316 µM",87.9%
same,"viability, T/C","second compound 0.316 µM, first compound 1 µM",99.2%
same,"viability, T/C","second compound 0.316 µM, first compound 3.16 µM",78.9%
same,"viability, T/C","second compound 0.316 µM, first compound 10 µM",2.7%
same,"viability, T/C",[11],75.5%
same,"viability, T/C",[12],75.4%
same,"viability, T/C","second compound 1 µM, first compound 0.316 µM",76.3%
same,"viability, T/C","second compound 1 µM, first compound 1 µM",61.3%
same,"viability, T/C","second compound 1 µM, first compound 3.16 µM",74.7%
same,"viability, T/C","second compound 1 µM, first compound 10 µM",2.07%
